Key:
MjavOBP2 = biological target: MjavOBP2; set-up: species or system Manis javanica; conditions: read-out: K d (competitive binding); pH 7.4
MjavOBP1 = format: binding, Manis javanica; conditions: for Kd: read-out: K d (competitive binding), pH 7.4
MjavOBP3 = system: MjavOBP3; set-up: species or system Manis javanica; conditions: read-out: IC50 (competitive binding); pH 7.4

Work on `CCCCCCCCCC(C)=O` [2-undecanone, 2-Undecanone] yielded a Kd (MjavOBP2) of 54.5 ± 10.8 µM and a Kd (MjavOBP1) of 56.6 ± 4.2 µM.

For `CCCCCCCC1CCCC(=O)O1` (stereo not drawn) [δ-dodecalactone, δ-Dodecalactone], the Kd (MjavOBP1) was 38.7 ± 2.04 µM.

`Cc1c[nH]c2ccccc12` [skatole, 3-methylindole] was tested, and the Kd (MjavOBP2) was 40.8 ± 8.93 µM.

For `CC(C)=CCCC(C)=CC=O` (mixture of isomers) [citral, Citral], the “binding to MjavOBP1 (in words)” value (MjavOBP1) was “bound weakly”.

`CCCCCC=O` [hexanal, Hexanal] showed an IC50 (MjavOBP3) greater than 2.23 µM.

Compound `CCCCCCCCC(=O)CC` [3-undecanone, 3-Undecanone] has an IC50 (MjavOBP3) greater than 2.23 µM.

For `O=C(O)CCc1ccccc1` [3-phenylpropionic acid, 3-Phenylpropionic acid], the “binding to MjavOBP1 (in words)” value (MjavOBP1) was “bound weakly”.

`C=CC(=C)CC/C=C(\C)CCC=C(C)C` [β-farnesene] showed an IC50 (MjavOBP3) greater than 2.23 µM.
